Experimental findings from ChEMBL document CHEMBL1122963, “[3H]Batrachotoxinin A 20 alpha-benzoate binding to voltage-sensitive sodium channels: a rapid and quantitative assay for local anesthetic activity in a variety of drugs” (J Med Chem, 1985) are described below.

The target of assay [1] is T1, Sodium channel alpha subunits; brain (Types I, II, III) (Homo sapiens, UniProt P35498+Q99250+Q9NY46). As to conditions: Cavia porcellus; Cerebral cortex; at 10 µM.
In assay [2] the target is T1, Sodium channel alpha subunits; brain (Types I, II, III). Briefly: Inhibition of binding of Batrachotoxinin [3H]BTX-B to high affinity sites on voltage dependent sodium channels in a vesicular preparation from guinea pig cerebral cortex. Type of assay: tissue-based, Cavia porcellus.

Take `CCCC[N+]1(C)CCCCC1C(=O)Nc1c(C)cccc1C.[I-]` (stereo unspecified): the inhibition (commonly how much of the control response was suppressed) in assay [1] turned out to be 64.5%. The half-inhibitory concentration (IC50) (commonly the concentration needed to halve the response being measured) in assay [2] is 4.8 µM.

For `CC[N+](CC)(CC)CC(=O)Nc1c(C)cccc1C.[Cl-]`, the inhibition in assay [1] amounted to 52.4%. This compound displayed an IC50 in assay [2] of 97 µM.

Turning to `CN1CCN(CCCN2c3ccccc3Sc3ccc(C(F)(F)F)cc32)CC1` [TRIFLUOPERAZINE], the inhibition in assay [1] is 79.8%. For the same compound, the concentration for half-maximal inhibition (IC50) in assay [2] stood at 5 µM.

On to `CC1CCCCN1CCCOC(=O)c1ccc(OC2CCCCC2)cc1` (stereo unspecified) [CYCLOMETHYCAINE], for which the inhibition in assay [1] was 81.9%. For the same compound, in assay [2], the IC50 was 2 µM.

Compound `CCN(CC)CCCC(C)Nc1c2ccc(Cl)cc2nc2ccc(OC)cc12` (stereo unspecified) [QUINACRINE] showed an inhibition in assay [1] of 73.3%. Besides, the IC50 in assay [2] came out at 3.3 µM.

Consider `CC(C)(C)NCC(O)COc1cccc2c1CCCC2=O` (stereo unspecified), for which, in assay [1], the inhibition was found to be 27.3%.

In turn, `CC(C)Cn1c(=O)n(C)c(=O)c2nc[nH]c21` [ISOBUTYLMETHYLXANTHINE] gave an inhibition in assay [1] of 0.9%. This compound registered a half-inhibitory concentration (IC50) in assay [2] of 1.8 µM.

`CCCOc1cc(N)ccc1C(=O)OCCN(CC)CC` [PROPOXYCAINE] had an inhibition in assay [1] of 30%. In assay [2], this compound gave an IC50 of 24 µM.

`COc1cc2nc(N3CCN(C(=O)c4ccco4)CC3)nc(N)c2cc1OC` [PRAZOSIN]: in assay [1], the inhibition worked out at 58.6%. In assay [2], this compound displayed an IC50 of 10.1 µM.

The compound `CCN(CC)CCCN1C(=O)CC2(CCCc3ccccc32)C1=O` (racemic; form 1) [listing 1 of 2 here] came in with an IC50 in assay [2] of 94 µM.

For the compound `CC(C)[C@@]1(O)[C@@H](OC(=O)c2cc[nH]c2)[C@@]2(O)[C@]3(C)C[C@@]4(O)O[C@@]5([C@H](O)[C@@H](C)CC[C@]35O)[C@@]2(O)[C@@]41C`, in assay [1], the inhibition was found to be 0%.

For the compound `CCCC(C(=O)OCCN(CC)CC)(c1ccccc1)c1ccccc1` [PROADIFEN], the inhibition in assay [1] came to 75.4%. In assay [2], this compound registered a concentration for half-maximal inhibition (IC50) of 4.2 µM.

Compound `C=CCC1(C(C)CCC)C(=O)NC(=O)NC1=O` (stereo unspecified) gave an inhibition in assay [1] of 4.4%.

For `CN1CCC(=C2c3ccccc3C=Cc3ccccc32)CC1` [CYPROHEPTADINE], the inhibition in assay [1] came to 83%. The same compound gave an IC50 in assay [2] of 1 µM.

In assay [1], `CCOC(=O)C1=C(C)NC(C)=C(C(=O)OC)C1c1cccc(Cl)c1Cl` (stereo unspecified) [FELODIPINE] returned an inhibition of 20.1%. For the same compound, the half-maximal inhibitory concentration (IC50) in assay [2] came to 37 µM.

On to `CCOc1ccc(C(=O)OCCN(CC)CC)cc1` [PARETHOXYCAINE], for which the inhibition in assay [1] was determined as 33.2%. This compound also yielded an IC50 in assay [2] of 24 µM.

For `CN1CCN2c3ccccc3Cc3ccccc3C2C1` (stereo unspecified) [MIANSERIN], the inhibition in assay [1] was determined as 57.4%. In addition, the half-inhibitory concentration (IC50) in assay [2] was found to be 5.5 µM.

`CC/C(=C(/CC)c1ccc(O)cc1)c1ccc(O)cc1` showed an inhibition in assay [1] of 30.1%.

Take `C[N+](C)(CC(=O)Nc1ccccc1)CC(=O)Nc1ccccc1.[Cl-]` [CARCAINIUM CHLORIDE]: the inhibition in assay [1] stood at 71.6%. In assay [2], this compound came in with an IC50 of 3.9 µM.

As to `COc1ccc(OC)c(C(O)C(C)NC(C)(C)C)c1` (stereo unspecified) [BUTOXAMINE], the inhibition in assay [1] is 26.8%. For the same compound, the IC50 in assay [2] stood at 27 µM.

`CCCOc1ccc(C(=O)OCCN(CC)CC)cc1N` [PROPARACAINE]: the inhibition in assay [1] amounted to 79.9%. This compound also showed an IC50 in assay [2] of 1.9 µM.

The compound `O=C(CCCN1CCC(O)(c2ccc(Cl)cc2)CC1)c1ccc(F)cc1` showed an inhibition in assay [1] of 85.5%.

The compound `CC[C@@H]1CN2CC[C@@H]1C[C@H]2[C@H](O)c1ccnc2ccc(OCCC(C)C)cc12` displayed an inhibition in assay [1] of 95.7%. Further, the IC50 in assay [2] is 0.74 µM.

`COC(=O)C1=C(C)NC(C)=C(C(=O)OC)C1c1ccccc1[N+](=O)[O-]` showed an inhibition in assay [1] of 26%.

Regarding `COc1ccc(CCN(C)CCCC(C#N)(c2ccc(OC)c(OC)c2)C(C)C)cc1OC` (stereo unspecified), the inhibition in assay [1] was 74.4%.

In the case of `CN(C)CCCn1c2c(c3ccccc31)CCCCCC2`, in assay [1], the inhibition was determined as 42.4%.

For the compound `COc1ccc(CN(CCN(C)C)c2ccccn2)cc1`, in assay [1], the inhibition amounted to 44.5%.

As for `Cn1c(=O)c2nc(-c3ccccc3)[nH]c2n(C)c1=O`, the inhibition in assay [1] was 10.9%.

As for `C=C[C@H]1CN2CC[C@H]1C[C@H]2[C@H](O)c1ccnc2ccc(OC)cc12` [QUININE], in assay [1], the inhibition amounted to 69.3%.

The compound `O=C(CCCN1CCC2(CC1)C(=O)NCN2c1ccccc1)c1ccc(F)cc1` [SPIPERONE] gave an inhibition in assay [1] of 98.7%.

Consider `C[C@H](Cc1ccccc1)Nc1ncnc2c1ncn2[C@@H]1O[C@H](CO)[C@@H](O)[C@H]1O`, for which the inhibition in assay [1] came to 2.2%.

`CCCN(CC)C(CC)C(=O)Nc1c(C)cccc1C` (stereo unspecified) [ETIDOCAINE] gave an inhibition in assay [1] of 73.2%.

The compound `CC(C)NCC(O)c1ccc([N+](=O)[O-])cc1` (stereo unspecified) showed an inhibition in assay [1] of 7.9%.

Consider `CCCCOc1cc(C(=O)NCCN(CC)CC)c2ccccc2n1` [DIBUCAINE], for which the inhibition in assay [1] amounted to 77.4%.

Turning to `COc1cc2c3cc1Oc1cc(ccc1O)C[C@@H]1c4c(cc(OC)c(O)c4Oc4ccc(cc4)C[C@@H]3N(C)CC2)CC[N+]1(C)C`, in assay [1], the inhibition stood at 3%.

Consider `CC[N+](CC)(CC)CC`, for which the inhibition in assay [1] was determined as 1.4%.

Consider `CN(C)C/C=C(/c1ccc(Br)cc1)c1cccnc1`, for which the inhibition in assay [1] was 34.6%.

For the compound `NCC(CC(=O)O)c1ccc(Cl)cc1` (stereo unspecified), the inhibition in assay [1] came out at 6.2%.

Regarding `COC(=O)[C@H]1[C@H]2C[C@H]3c4[nH]c5ccccc5c4CCN3C[C@@H]2CC[C@@H]1O`, the inhibition in assay [1] came to 33.7%.

As to `COc1ccc(CCN(C)CCCC2(c3ccc(OC)c(OC)c3)S(=O)(=O)CCCS2(=O)=O)cc1OC`, the half-maximal inhibitory concentration (IC50) in assay [2] was 13.5 µM.

In assay [1], `COc1cc2c(cc1OC)-c1c/c(=N\c3c(C)cc(C)cc3C)n(C)c(=O)n1CC2` displayed an inhibition of 17.4%.

`O=C1NC(=O)C(c2ccccc2)(c2ccccc2)N1` registered an inhibition in assay [1] of 18.5%.

`CCCCN1CCCCC1C(=O)Nc1c(C)cccc1C` (stereo unspecified) [BUPIVACAINE] showed an inhibition in assay [1] of 63.4%.

In assay [1], `CCCCOc1cc(CC2CNC(=O)N2)ccc1OC` (stereo unspecified) returned an inhibition of 14.1%.

As to `NC[C@H](CC(=O)O)c1ccc(Cl)cc1`, the inhibition in assay [1] is 11.7%.

In turn, `CC(=O)Nc1ccc(OCC(O)CNC(C)C)cc1` (stereo unspecified) returned an inhibition in assay [1] of 8.4%.

For `C=C[C@H]1CN2CC[C@H]1C[C@@H]2[C@@H](O)c1ccnc2ccc(OC)cc12` [QUINIDINE], in assay [1], the inhibition stood at 74.1%.

`COC(=O)[C@H]1[C@H]2C[C@H]3c4[nH]c5ccccc5c4CCN3C[C@H]2CC[C@@H]1O` returned an inhibition in assay [1] of 13.1%.

Turning to `CCN(CC)CCCN1C(=O)CC2(CCCc3ccccc32)C1=O` (racemic; form 2) [listing 1 of 2 here], the IC50 in assay [2] amounted to 12 µM.

In the case of `CCC1(c2ccccc2)C(=O)NC(=O)NC1=O`, the inhibition in assay [1] came to 5.4%.

`COc1ccc2c3c1O[C@H]1[C@@H](O)C=C[C@H]4[C@@H](C2)N(C)CC[C@@]341` gave an inhibition in assay [1] of 5.7%.

`CCCCNc1ccc(C(=O)OCCN(C)C)cc1`: the inhibition in assay [1] was determined as 72%.

In assay [1], (-)-BUTACLAMOL registered an inhibition of 87.1%.

For the compound `CC(C)(C)NC[C@H](O)COc1nsnc1N1CCOCC1`, the inhibition in assay [1] was found to be 8%.

As for `CCN(CC)CCCN1C(=O)CC2(CCCc3ccccc32)C1=O` (racemic; form 2) [listing 2 of 2 here], in assay [1], the inhibition turned out to be 54.1%.

In assay [1], `CC(C)CCC[C@@H](C)[C@H]1CC[C@H]2[C@@H]3CC=C4C[C@@H](O)CC[C@]4(C)[C@H]3CC[C@]12C` gave an inhibition of 3.3%.

On to `O=C(O)c1ccccc1Nc1cccc(C(F)(F)F)c1`, for which the inhibition in assay [1] is 26.7%.

`NC(=O)N1c2ccccc2C=Cc2ccccc21`: in assay [1], the inhibition was 1.6%.

`CCN(CC)CCCN1C(=O)CC2(CCCc3ccccc32)C1=O` (racemic; form 1) [listing 2 of 2 here] yielded an inhibition in assay [1] of 25.7%.
